According to ChEMBL document CHEMBL3044921, “Synthesis, characterization, and SAR studies of new (1H-indol-3-yl)alkyl-3-(1H-indol-3-yl)propanamide derivatives as possible antimicrobial and antitubercular agents” (2013):
In brackets after ≈: the same amount, converted by molar mass.

Legend:
Klebsiella pneumoniae [1] = test: Antibacterial activity against Klebsiella pneumoniae assessed as growth inhibition after 16 to 18 hr by serial plate dilution method; format: functional
Aspergillus fumigatus [2] = test: Antifungal activity against Aspergillus fumigatus NCIM 902 assessed as growth inhibition after 3 to 4 days by serial plate dilution method; format: functional
Aspergillus fumigatus [3] = test: Antifungal activity against Aspergillus fumigatus NCIM 902 assessed as growth inhibition at […] to […] ug/ml after 3 to 4 days by agar well diffusion method; format: functional
Candida albicans [4] = test: Antifungal activity against Candida albicans assessed as growth inhibition after 3 to 4 days by serial plate dilution method; format: functional
Klebsiella pneumoniae [5] = format: functional
Description: Antibacterial activity against Klebsiella pneumoniae assessed as growth inhibition at 1.56 to 25 ug/ml after 3 to 4 days by agar well diffusion method

Talaromyces marneffei [6] = test: Antifungal activity against Talaromyces marneffei assessed as growth inhibition at […] to […] ug/ml after 3 to 4 days by agar well diffusion method; format: functional
Talaromyces marneffei [7] = test: Antifungal activity against Talaromyces marneffei assessed as growth inhibition after 3 to 4 days by serial plate dilution method; format: functional
Streptococcus pyogenes [8] = test: Antibacterial activity against Streptococcus pyogenes assessed as growth inhibition after 16 to 18 hr by serial plate dilution method; format: functional
[9] = test system: Mycolicibacterium fortuitum; test: Antitubercular activity against Mycobacterium fortuitum ATCC 19542 assessed as growth inhibition at 1 to 100 ug/mL after 7 days by resazurin reduction test; format: functional; conditions: ATCC 19542, 168 h
Staphylococcus aureus [10] = format: functional, ATCC 25923
Description: Antibacterial activity against Staphylococcus aureus ATCC 25923 assessed as growth inhibition at 1.56 to 25 ug/ml after 3 to 4 days by agar well diffusion method

[11] = test system: Mycolicibacterium smegmatis; test: Antitubercular activity against Mycobacterium smegmatis ATCC 19420 assessed as growth inhibition at 1 to 100 ug/mL after 7 days by resazurin reduction test; format: functional; conditions: ATCC 19420, 168 h
Staphylococcus aureus [12] = test: Antibacterial activity against Staphylococcus aureus ATCC 25923 assessed as growth inhibition after 16 to 18 hr by serial plate dilution method; format: functional
[13] = test system: Trichophyton mentagrophytes; test: Antifungal activity against Trichophyton mentagrophytes assessed as growth inhibition at […] to […] ug/ml after 3 to 4 days by agar well diffusion method; format: functional
Pseudomonas aeruginosa [14] = test: Antibacterial activity against Pseudomonas aeruginosa ATCC 27853 assessed as growth inhibition after 16 to 18 hr by serial plate dilution method; format: functional
[15] = test system: Trichophyton mentagrophytes; test: Antifungal activity against Trichophyton mentagrophytes assessed as growth inhibition after 3 to 4 days by serial plate dilution method; format: functional
Escherichia coli [16] = test: Antibacterial activity against Escherichia coli […] assessed as growth inhibition after 16 to 18 hr by serial plate dilution method; format: functional
Aspergillus flavus [17] = test: Antifungal activity against Aspergillus flavus NCIM 524 assessed as growth inhibition at […] to […] ug/ml after 3 to 4 days by agar well diffusion method; format: functional
[18] = test system: Mycobacterium tuberculosis; test: Antitubercular activity against Mycobacterium tuberculosis H37Rv ATCC 27294 assessed as growth inhibition at 1 to 100 ug/mL after 7 days by resazurin reduction test; format: functional; conditions: for MIC: Mycobacterium tuberculosis, H37Rv ATCC 27294, 168 h
Pseudomonas aeruginosa [19] = format: functional, ATCC 27853
Description: Antibacterial activity against Pseudomonas aeruginosa ATCC 27853 assessed as growth inhibition at 1.56 to 25 ug/ml after 3 to 4 days by agar well diffusion method

Aspergillus flavus [20] = test: Antifungal activity against Aspergillus flavus NCIM 524 assessed as growth inhibition after 3 to 4 days by serial plate dilution method; format: functional
Candida albicans [21] = test: Antifungal activity against Candida albicans assessed as growth inhibition at […] to […] ug/ml after 3 to 4 days by agar well diffusion method; format: functional
Streptococcus pyogenes [22] = format: functional
Description: Antibacterial activity against Streptococcus pyogenes assessed as growth inhibition at 1.56 to 25 ug/ml after 3 to 4 days by agar well diffusion method

Escherichia coli [23] = format: functional, ATCC 24922
Description: Antibacterial activity against Escherichia coli ATCC 24922 assessed as growth inhibition at 1.56 to 25 ug/ml after 3 to 4 days by agar well diffusion method

[24] = test system: Mycobacterium tuberculosis; test: Antitubercular activity against Mycobacterium tuberculosis H37Rv ATCC 27294 assessed as growth inhibition at 0.3125 to 5 ug/mL after 7 days by resazurin reduction test; format: functional; conditions: H37Rv ATCC 27294, 168 h
[25] = test system: Mycolicibacterium fortuitum; test: Antitubercular activity against Mycobacterium fortuitum ATCC 19542 assessed as growth inhibition at 0.3125 to 5 ug/mL after 7 days by resazurin reduction test; format: functional; conditions: ATCC 19542, 168 h

Row | SMILES | MIC (Klebsiella pneumoniae [1]) [µg/mL] | MIC (Aspergillus fumigatus [2]) [µg/mL] | diameter of the inhibition zone (DIZ) (Aspergillus fumigatus [3]) [mm] | MIC (Candida albicans [4]) [µg/mL] | diameter of the inhibition zone (DIZ) (Klebsiella pneumoniae [5]) [mm] | diameter of the inhibition zone (DIZ) (Talaromyces marneffei [6]) [mm] | MIC (Talaromyces marneffei [7]) [µg/mL] | MIC (Streptococcus pyogenes [8]) [µg/mL] | MIC [9] [µg/mL] | diameter of the inhibition zone (DIZ) (Staphylococcus aureus [10]) [mm] | MIC [11] [µg/mL] | MIC (Staphylococcus aureus [12]) [µg/mL] | diameter of the inhibition zone (DIZ) [13] [mm] | MIC (Pseudomonas aeruginosa [14]) [µg/mL] | MIC [15] [µg/mL] | diameter of the inhibition zone (DIZ) (Aspergillus flavus [17]) [mm] | diameter of the inhibition zone (DIZ) (Pseudomonas aeruginosa [19]) [mm] | MIC (Aspergillus flavus [20]) [µg/mL] | diameter of the inhibition zone (DIZ) (Candida albicans [21]) [mm] | diameter of the inhibition zone (DIZ) (Streptococcus pyogenes [22]) [mm] | also measured
1 | O=C(CCc1c[nH]c2ccc(Cl)cc12)NCCCc1c[nH]c2ccc(OC(F)(F)F)cc12 | 6.25 (≈ 13.5 µM) | 25 (≈ 53.9 µM) | <10 | 25 (≈ 53.9 µM) | 16 | <10 | 25 (≈ 53.9 µM) | 12.5 (≈ 26.9 µM) | > 100 | 16 | > 100 | 6.25 (≈ 13.5 µM) | <10 | 6.25 (≈ 13.5 µM) | 25 (≈ 53.9 µM) | <10 | 16 | 25 (≈ 53.9 µM) | <10 | 11 | MIC (Escherichia coli [16]): 6.25 µg/mL (≈ 13.5 µM); growth inhibition (GI) [18]: 0%; MIC [18]: > 100 µg/mL; diameter of the inhibition zone (DIZ) (Escherichia coli [23]): 16 mm
2 | Cc1c(CCCNC(=O)CCc2cn(C)c3ccc(Cl)cc23)c2cc(OC(F)(F)F)ccc2n1C | 12.5 (≈ 24.7 µM) | 12.5 (≈ 24.7 µM) | 11 | 25 (≈ 49.4 µM) | 11 | 16 | 6.25 (≈ 12.4 µM) | 25 (≈ 49.4 µM) | > 100 | 11 | > 100 | 12.5 (≈ 24.7 µM) | 11 | 25 (≈ 49.4 µM) | 12.5 (≈ 24.7 µM) | 16 | <10 | 6.25 (≈ 12.4 µM) | <10 | <10 | MIC [24]: 1.25 µg/mL (≈ 2.47 µM); MIC (Escherichia coli [16]): 12.5 µg/mL (≈ 24.7 µM); growth inhibition (GI) [18]: <90%; MIC [18]: 10 µg/mL (≈ 19.8 µM); diameter of the inhibition zone (DIZ) (Escherichia coli [23]): 11 mm
3 | Cc1c(CNC(=O)CCc2c[nH]c3ccc(Cl)cc23)c2cc(OC(F)(F)F)ccc2n1C | 25 (≈ 53.9 µM) | 12.5 (≈ 26.9 µM) | 11 | 6.25 (≈ 13.5 µM) | <10 | 11 | 12.5 (≈ 26.9 µM) | 25 (≈ 53.9 µM) | > 100 | 16 | 10 (≈ 21.6 µM) | 6.25 (≈ 13.5 µM) | 11 | 6.25 (≈ 13.5 µM) | 12.5 (≈ 26.9 µM) | 11 | 16 | 12.5 (≈ 26.9 µM) | 16 | <10 | MIC [24]: 5 µg/mL (≈ 10.8 µM); MIC (Escherichia coli [16]): 12.5 µg/mL (≈ 26.9 µM); growth inhibition (GI) [18]: <90%; MIC [18]: > 100 µg/mL; diameter of the inhibition zone (DIZ) (Escherichia coli [23]): 11 mm
4 | Cn1cc(CNC(=O)CCc2c[nH]c3ccc(Cl)cc23)c2cc(Cl)ccc21 | 12.5 (≈ 31.2 µM) | 6.25 (≈ 15.6 µM) | 16 | 6.25 (≈ 15.6 µM) | 11 | 16 | 6.25 (≈ 15.6 µM) | 6.25 (≈ 15.6 µM) | 10 (≈ 25 µM) | 11 | 10 (≈ 25 µM) | 12.5 (≈ 31.2 µM) | 16 | 25 (≈ 62.5 µM) | 6.25 (≈ 15.6 µM) | 16 | <10 | 6.25 (≈ 15.6 µM) | 16 | 16 | MIC [25]: 10 µg/mL (≈ 25 µM); MIC [24]: 1.25 µg/mL (≈ 3.12 µM); MIC (Escherichia coli [16]): 12.5 µg/mL (≈ 31.2 µM); growth inhibition (GI) [18]: 90%; MIC [18]: > 100 µg/mL; diameter of the inhibition zone (DIZ) (Escherichia coli [23]): 11 mm
5 | O=C(O)c1cn(C2CC2)c2cc(N3CCNCC3)c(F)cc2c1=O [CIPROFLOXACIN] | 1.56 (≈ 4.71 µM) |  |  |  | 21 |  |  | 6.25 (≈ 18.9 µM) |  | 30 |  |  |  |  |  |  | 16 |  |  | 23 | 
6 | O=C(CCc1c[nH]c2ccc(Cl)cc12)NCCCc1c[nH]c2ccc(Cl)cc12 | 25 (≈ 60.3 µM) | 6.25 (≈ 15.1 µM) | 16 | 6.25 (≈ 15.1 µM) | <10 | 16 | 6.25 (≈ 15.1 µM) | 6.25 (≈ 15.1 µM) | > 100 | <10 | > 100 | 25 (≈ 60.3 µM) | 16 | 25 (≈ 60.3 µM) | 6.25 (≈ 15.1 µM) | 16 | <10 | 6.25 (≈ 15.1 µM) | 16 | 16 | MIC (Escherichia coli [16]): 25 µg/mL (≈ 60.3 µM); growth inhibition (GI) [18]: 0%; MIC [18]: > 100 µg/mL; diameter of the inhibition zone (DIZ) (Escherichia coli [23]): <10 mm
7 | Cc1c(CNC(=O)CCc2cn(C)c3ccc(Cl)cc23)c2cc(OC(F)(F)F)ccc2n1C | 12.5 (≈ 26.2 µM) | 6.25 (≈ 13.1 µM) | 16 | 12.5 (≈ 26.2 µM) | 11 | <10 | 25 (≈ 52.3 µM) | 25 (≈ 52.3 µM) | > 100 | 11 | 10 (≈ 20.9 µM) | 12.5 (≈ 26.2 µM) | 16 | 25 (≈ 52.3 µM) | 6.25 (≈ 13.1 µM) | <10 | <10 | 25 (≈ 52.3 µM) | 11 | <10 | MIC [24]: 5 µg/mL (≈ 10.5 µM); MIC (Escherichia coli [16]): 12.5 µg/mL (≈ 26.2 µM); growth inhibition (GI) [18]: <90%; MIC [18]: > 100 µg/mL; diameter of the inhibition zone (DIZ) (Escherichia coli [23]): 11 mm
8 | Cc1c(CCCNC(=O)CCc2c[nH]c3ccc(Cl)cc23)c2cc(OC(F)(F)F)ccc2n1C | 12.5 (≈ 25.4 µM) | 25 (≈ 50.8 µM) | <10 | 12.5 (≈ 25.4 µM) | 11 | 16 | 6.25 (≈ 12.7 µM) | 6.25 (≈ 12.7 µM) | 10 (≈ 20.3 µM) | 11 | > 100 | 12.5 (≈ 25.4 µM) | <10 | 25 (≈ 50.8 µM) | 25 (≈ 50.8 µM) | 16 | <10 | 6.25 (≈ 12.7 µM) | 11 | 16 | MIC [25]: 10 µg/mL (≈ 20.3 µM); MIC [24]: 10 µg/mL (≈ 20.3 µM); MIC (Escherichia coli [16]): 12.5 µg/mL (≈ 25.4 µM); growth inhibition (GI) [18]: 90%; MIC [18]: 10 µg/mL (≈ 20.3 µM); diameter of the inhibition zone (DIZ) (Escherichia coli [23]): 11 mm
9 | Cn1cc(CCCNC(=O)CCc2c[nH]c3ccc(Cl)cc23)c2cc(Cl)ccc21 | 12.5 (≈ 29.2 µM) | 6.25 (≈ 14.6 µM) | 16 | 25 (≈ 58.4 µM) | 11 | <10 | 25 (≈ 58.4 µM) | 25 (≈ 58.4 µM) | > 100 | <10 | > 100 | 25 (≈ 58.4 µM) | 16 | 12.5 (≈ 29.2 µM) | 6.25 (≈ 14.6 µM) | <10 | 11 | 25 (≈ 58.4 µM) | <10 | <10 | MIC (Escherichia coli [16]): 12.5 µg/mL (≈ 29.2 µM); growth inhibition (GI) [18]: 0%; MIC [18]: > 100 µg/mL; diameter of the inhibition zone (DIZ) (Escherichia coli [23]): 11 mm
10 | Cc1cc(C2CCCCC2)n(O)c(=O)c1.NCCO [CICLOPIROX OLAMINE] |  | 6.25 | 25 | 6.25 |  | 20 | 6.25 |  |  |  |  |  | 27 |  | 6.25 | 25 |  | 6.25 | 20 |  | 
